Columns and labels:
[1] = target: T1, collagen type I gels (Bos taurus, UniProt P02453+P02465); test: Viscoelastic characterization of collagen type I gels (rheometer); conditions: 5:1, 10:1 and 30:1 collagen:additive; 0.1-1.0 Hz, 1.0 Pa
T1 construct: purchased Inamed, Freemont, Calif; (Nutragen)
Method: The PTFE printing restricted gels to the 20 mm diameter wettable region. Gels were formed in a humidified incubator at 37° C. overnight prior to mechanical testing. Slides were clamped on the rheometer stage of a AR-G2 rheometer with 20 mm stainless steel parallel plate geometry (TA Instruments, New Castle, Del.), and the 20 mm stainless steel parallel plate geometry was lowered to a gap distance of 600 μm using a normal force control of 0.25N to avoid excessive shearing on the formed gel. An iterative process of stress and frequency sweeps was performed on gels of collagen alone to determine the linear range. All samples were also tested over a frequency range from 0.1 Hz to 1.0 Hz and a controlled stress of 1.0 Pa. Statistical analysis using Design Expert software ([…], Minneapolis, Minn.) was performed at each frequency and a 5-way ANOVA used to compare samples. […] Viscoelastic characterization was performed as described in EXAMPLE 17 on gels formed with varying ratios of collagen to additive (treatment).

[2] = test system: Human coronary artery smooth muscle cells (HCA SMC); test: Gel compaction by cells seeded in collagen gels; type: cell-based; conditions: Day 7
Method: Human coronary artery smooth muscle cells (HCA SMC) (Cascade Biologics) were cultured in growth medium (Medium 231 supplemented with smooth muscle growth factor). Cells from passage 3 were used for all experiments. Differentiation medium (Medium 231 supplemented with 1% FBS and 1× pen/strep) was used for all experiments unless otherwise noted.
Collagen gels were prepared with each additive as described with the exception that the 1×PBS example addition was omitted to accommodate the addition of cells in media. After incubating on ice for 30 min, HCA SMCs in differentiation medium were added to the gel solutions to a final concentration of 1×10^6 cells/mL. Gels were formed in quadruplicate in 48-well non-tissue culture treated plates (Costar) for 6 hrs before adding 500 μL/well differentiation medium. Gels were freed from the well edges after 24 hrs. Medium was changed every 2-3 days and images for compaction were taken at the same time points using a Gel Doc System (Bio-Rad). The cross-sectional area of circular gels correlating to degree of compaction was determined using ImageJ software (NIH). Gels containing no cells were used as a negative control and cells in collagen gels absent additive were used as a positive control. By day 10 all gels had compacted to approximately 10% of the original gel area, and differences between additives were small.

[3] = test system: HCA SMCs; test: Elastin content by Fastin elastin assay; type: cell-based, Human; conditions: gels cultured for 10 days
Method: Differentiation medium was changed every three days and gels were cultured for 10 days. […] Gels were rinsed in 1×PBS overnight to remove serum protein, and gels were tested for elastin content using the Fastin elastin assay per manufacturers protocol (Biocolor, County […].). Briefly, gels were solubilized in 0.25 M oxalic acid by incubating at 100° C. for 1 hr. Elastin was precipitated and samples were then centrifuged at 11,000×g for 10 min. The solubilized collagen supernatant was removed and the elastin pellet was stained by Fastin Dye Reagent for 90 min at room temperature. Samples were centrifuged at 11,000×g for 10 min and unbound dye in the supernatant was removed. Dye from the elastin pellets was released by the Fastin Dye Dissociation Reagent, and 100 μL samples were transferred to a 96-well plate (Costar). Absorbance was measured at 513 nm, and elastin content was calculated from an α-elastin standard curve.

T1 sequence (P02453 162-1217 limits assumed): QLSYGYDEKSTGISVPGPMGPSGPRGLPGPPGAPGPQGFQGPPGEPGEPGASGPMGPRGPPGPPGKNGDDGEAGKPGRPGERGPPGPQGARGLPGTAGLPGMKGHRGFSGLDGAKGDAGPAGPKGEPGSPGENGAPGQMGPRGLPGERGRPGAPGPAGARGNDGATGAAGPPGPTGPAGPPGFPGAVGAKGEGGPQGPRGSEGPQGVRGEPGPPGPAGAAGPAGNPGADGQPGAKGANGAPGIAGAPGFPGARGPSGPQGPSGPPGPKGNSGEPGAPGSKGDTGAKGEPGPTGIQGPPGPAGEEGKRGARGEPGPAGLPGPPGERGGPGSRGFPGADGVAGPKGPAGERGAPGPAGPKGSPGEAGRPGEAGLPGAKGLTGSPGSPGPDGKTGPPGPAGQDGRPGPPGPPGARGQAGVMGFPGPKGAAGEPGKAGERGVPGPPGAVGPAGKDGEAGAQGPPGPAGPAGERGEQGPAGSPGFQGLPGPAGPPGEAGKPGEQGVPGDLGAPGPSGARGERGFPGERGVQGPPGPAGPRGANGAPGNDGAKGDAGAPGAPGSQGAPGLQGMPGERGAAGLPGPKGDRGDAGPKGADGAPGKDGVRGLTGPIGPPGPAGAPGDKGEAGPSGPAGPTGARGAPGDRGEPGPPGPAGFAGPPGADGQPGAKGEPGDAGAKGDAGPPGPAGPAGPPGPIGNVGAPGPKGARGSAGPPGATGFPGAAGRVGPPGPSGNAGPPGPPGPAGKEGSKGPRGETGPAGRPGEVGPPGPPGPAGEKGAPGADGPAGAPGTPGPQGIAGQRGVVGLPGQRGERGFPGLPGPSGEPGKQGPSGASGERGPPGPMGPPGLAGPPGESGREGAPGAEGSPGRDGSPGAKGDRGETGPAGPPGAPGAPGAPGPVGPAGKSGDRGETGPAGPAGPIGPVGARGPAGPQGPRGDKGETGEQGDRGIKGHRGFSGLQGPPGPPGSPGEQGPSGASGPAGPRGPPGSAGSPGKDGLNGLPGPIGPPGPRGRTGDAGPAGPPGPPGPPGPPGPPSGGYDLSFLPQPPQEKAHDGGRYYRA
T1 sequence (P02465 80-1117 limits assumed): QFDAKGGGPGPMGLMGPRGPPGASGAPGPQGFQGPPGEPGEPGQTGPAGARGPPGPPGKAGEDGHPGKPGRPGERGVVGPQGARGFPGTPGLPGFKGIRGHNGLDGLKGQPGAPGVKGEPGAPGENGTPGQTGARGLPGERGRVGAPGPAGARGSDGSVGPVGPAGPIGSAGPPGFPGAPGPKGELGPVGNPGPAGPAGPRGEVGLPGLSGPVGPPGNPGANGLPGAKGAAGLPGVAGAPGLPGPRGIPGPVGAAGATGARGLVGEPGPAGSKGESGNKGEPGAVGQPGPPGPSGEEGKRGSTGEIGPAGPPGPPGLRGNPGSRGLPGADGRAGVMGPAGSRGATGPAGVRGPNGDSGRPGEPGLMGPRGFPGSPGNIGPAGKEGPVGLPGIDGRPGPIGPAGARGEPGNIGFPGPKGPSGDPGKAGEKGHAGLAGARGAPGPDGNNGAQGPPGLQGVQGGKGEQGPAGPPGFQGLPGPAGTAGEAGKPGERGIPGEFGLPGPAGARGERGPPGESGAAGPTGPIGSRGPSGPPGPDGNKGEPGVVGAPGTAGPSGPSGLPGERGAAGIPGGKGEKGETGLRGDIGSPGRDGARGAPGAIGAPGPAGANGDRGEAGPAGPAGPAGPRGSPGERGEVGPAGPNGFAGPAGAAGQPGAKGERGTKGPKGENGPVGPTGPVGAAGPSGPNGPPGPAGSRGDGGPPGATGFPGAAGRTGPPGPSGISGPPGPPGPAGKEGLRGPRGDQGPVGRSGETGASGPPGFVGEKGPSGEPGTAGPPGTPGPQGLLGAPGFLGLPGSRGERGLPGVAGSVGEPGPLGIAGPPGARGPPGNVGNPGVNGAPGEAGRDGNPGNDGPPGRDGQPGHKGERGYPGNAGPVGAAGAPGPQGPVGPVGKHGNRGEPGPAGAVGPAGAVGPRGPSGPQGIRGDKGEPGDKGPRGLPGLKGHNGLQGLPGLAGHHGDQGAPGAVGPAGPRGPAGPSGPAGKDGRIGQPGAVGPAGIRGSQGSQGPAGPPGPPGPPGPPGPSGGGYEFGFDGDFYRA

With dermatan sulfate [DS] as the substance, how does the “Stiffness of collagen gel (storage modulus G')” value [1] read?
Its value is “increase the stiffness of the resulting collagen gel over untreated collagen”.

And the “Gel compaction, statistical significance” value [2]?
Its value is “significant compared to collagen”.

And the Elastin production [3]?
The Elastin production was “significantly decreased elastin production over untreated collagen”.

— US10689425B2, “Collagen-binding synthetic peptidoglycans, preparation, and methods of use” (Purdue Research Foundation, priority 2008, dated 2020)
